Key:
Histamine H4 receptor = Histamine H4 receptor (Homo sapiens, UniProt Q9H3N8); assay: (§1) PDSP Secondary Binding target: HRH4 - Compounds are tested at 10 uM concentration, plate are incubated at room temperature in the dark for 90 minutes. Reaction are stopped by vacuum filtration onto 0.3% polyethyleneimine soaked filter mats using Filtermate harvester. Scintillation cocktail is then melted onto microwave-dried filters on a hot plate and the radio activity is counted in Microbia counter.
[1] = target: Delta-type opioid receptor (Homo sapiens, UniProt P41143); assay: as §1, with “OPRD1” for “HRH4”
Chain of Delta-type opioid receptor (P41143 whole entry): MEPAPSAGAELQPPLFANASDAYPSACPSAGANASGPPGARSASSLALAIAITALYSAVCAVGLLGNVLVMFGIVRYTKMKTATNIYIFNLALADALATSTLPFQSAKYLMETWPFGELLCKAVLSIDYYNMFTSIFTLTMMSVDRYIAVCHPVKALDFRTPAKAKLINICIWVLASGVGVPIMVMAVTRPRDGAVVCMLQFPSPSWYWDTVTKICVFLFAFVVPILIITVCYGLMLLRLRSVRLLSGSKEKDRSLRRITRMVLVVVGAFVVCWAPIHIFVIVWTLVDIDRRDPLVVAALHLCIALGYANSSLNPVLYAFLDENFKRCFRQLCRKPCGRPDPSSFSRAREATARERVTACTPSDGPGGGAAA

Ki (Histamine H4 receptor) [nM]	Ki [1] [nM]	SMILES
> 10000		COc1cc(-n2cnc3cc(-c4ccc(Cl)cc4)sc3c2=O)ccc1OCCN1CCCC1
	399	COC(=O)C1=C(C)NC(C)=C(C(=O)OCCCN2CCC(c3ccccc3)(c3ccccc3)CC2)[C@H]1c1cccc([N+](=O)[O-])c1 [NIGULDIPINE]

Reference: ChEMBL document CHEMBL5442175, “EUbOPEN Chemogenomics Library - PDSP Secondary Binding” (2024)
